Source: US4948892A, “Sulfonamid compound useful for treating cardiovascular disorders” (Kowa Comp., Ltd., priority 1988, dated 1990)

System: ADP-induced platelet aggregation (rabbit PRP)
Assay: Inhibitory effect on ADP-induced platelet aggregation in PRP
Assay type: cell-based
Conditions: ADP (2 μM), preincubated 37° C. for 1 minute, inhibition rate (%) at this concentration in parentheses
Description: Rabbit PRP (250 μl) was preincubated with drug samples (10 μl of aqueous solution or 1 μl of DMSO solution) at 37° C. for 1 minute, and ADP (2 μM)-induced platelet aggregation was measured by aggregometer (NKK HEMA TRACERl Model PAT-4M). Inhibitory effects of the drugs were estimated from the standard curve of maximal aggregation.

## O=S(=O)(NCCCN1CCN(C(c2ccccc2)c2ccccc2)CC1)c1ccc(Cl)cc1 [Example 9]
  Platelet aggregation inhibitory concentration: 10^-4 mole/liter
